{"source": "paper PMC10141580", "about": "“Cyclic Dichalcogenides Extend the Reach of Bioreductive Prodrugs to Harness Thiol/Disulfide Oxidoreductases: Applications to seco-Duocarmycins Targeting the Thioredoxin System” (ACS Central Science, 2023)", "key": {"A549 cells": {"test_system": "A549 cells", "assay": "Resazurin cytotoxicity assay, A549, 72 h", "conditions": "read-out: IC50(nM): A549", "method": "We used A549 lung cancer and HeLa cervical cancer cell lines for initial screening of the prodrugs.\nFi gure S9: Cell ular resazurin-based cytotoxi ci ty as s a y.\nDose -response curves were calculated from at least 27 incremental single concentrations over a range\nof at least three log units. Individual experiments with annotated experiment numbers are shown for each prodrug"}, "[1]": {"test_system": "NCI-60 standardized human tumor cell line panel", "assay": "cells", "assay_type": "cell-based", "conditions": "for NCI-60 screening: Log(GI50): log10 of GI50 in M; for NCI-60 screening: Log(RedIndex): log10 reductive index vs P-CC60"}}, "note": "Read-outs that look alike come from different tables or passages of the source.", "data": [{"smiles": "COc1cc2cc(C(=O)N3CC(CCl)c4c3cc(OC(=O)N3CCN(C)C5CSSCC53)c3ccccc43)[nH]c2c(OC)c1OC", "note": "(mixture of isomers) [Me-SS66C-CBI-TMI]", "values": [{"measurement": "IC50", "setting": "A549 cells", "result": 17, "unit": "nM"}, {"measurement": "NCI-60 screening: Log(GI50)", "setting": "[1]; 786-0 (RE) cell line", "result": -6.71}, {"measurement": "NCI-60 screening: Log(RedIndex)", "setting": "[1]; 786-0 (RE) cell line", "result": 0.94}, {"measurement": "GI50", "setting": "[1]; 786-0 (RE) cell line, read-out: NCI-60 screening: Raw GI50", "result": 200, "unit": "nM"}, {"measurement": "GI50", "setting": "[1]; 786-0, read-out: GI50", "result": 200, "unit": "nM"}, {"measurement": "NCI-60 screening: Log(GI50)", "setting": "[1]; A498 (RE) cell line", "result": -5.91}, {"measurement": "NCI-60 screening: Log(RedIndex)", "setting": "[1]; A498 (RE) cell line", "result": 0.35}, {"measurement": "GI50", "setting": "[1]; A498, read-out: GI50", "result": 1200, "unit": "nM"}, {"measurement": "GI50", "setting": "[1]; A549/ATCC, read-out: GI50", "result": 180, "unit": "nM"}, {"measurement": "NCI-60 screening: Log(GI50)", "setting": "[1]; ACHN (RE) cell line", "result": -7.55}, {"measurement": "NCI-60 screening: Log(RedIndex)", "setting": "[1]; ACHN (RE) cell line", "result": 1.24}, {"measurement": "GI50", "setting": "[1]; ACHN (RE) cell line, read-out: NCI-60 screening: Raw GI50", "result": 28, "unit": "nM"}, {"measurement": "GI50", "setting": "[1]; ACHN, read-out: GI50", "result": 28, "unit": "nM"}, {"measurement": "GI50", "setting": "[1]; BT-549, read-out: GI50", "result": 170, "unit": "nM"}, {"measurement": "NCI-60 screening: Log(GI50)", "setting": "[1]; CAKI-1 (RE) cell line", "result": -6.61}, {"measurement": "NCI-60 screening: Log(RedIndex)", "setting": "[1]; CAKI-1 (RE) cell line", "result": 0.78}, {"measurement": "GI50", "setting": "[1]; CAKI-1 (RE) cell line, read-out: NCI-60 screening: Raw GI50", "result": 250, "unit": "nM"}, {"measurement": "GI50", "setting": "[1]; CAKI-1, read-out: GI50", "result": 250, "unit": "nM"}, {"measurement": "GI50", "setting": "[1]; CCRF-CEM, read-out: GI50", "result": 110, "unit": "nM"}, {"measurement": "GI50", "setting": "[1]; COLO 205, read-out: GI50", "result": 330, "unit": "nM"}, {"measurement": "NCI-60 screening: Log(GI50)", "setting": "[1]; DU-145 (PR) cell line", "result": -7.2}, {"measurement": "NCI-60 screening: Log(RedIndex)", "setting": "[1]; DU-145 (PR) cell line", "result": 0.86}, {"measurement": "GI50", "setting": "[1]; DU-145, read-out: GI50", "result": 63, "unit": "nM"}, {"measurement": "GI50", "setting": "[1]; EKVX, read-out: GI50", "result": 230, "unit": "nM"}, {"measurement": "GI50", "setting": "[1]; HCC-2998, read-out: GI50", "result": 140, "unit": "nM"}, {"measurement": "GI50", "setting": "[1]; HCT-15, read-out: GI50", "result": 250, "unit": "nM"}, {"measurement": "GI50", "setting": "[1]; HCT-116, read-out: GI50", "result": 190, "unit": "nM"}, {"measurement": "GI50", "setting": "[1]; HL-60(TB), read-out: GI50", "result": 52, "unit": "nM"}, {"measurement": "GI50", "setting": "[1]; HOP-62, read-out: GI50", "result": 200, "unit": "nM"}, {"measurement": "GI50", "setting": "[1]; HOP-92, read-out: GI50", "result": 240, "unit": "nM"}, {"measurement": "GI50", "setting": "[1]; HT29, read-out: GI50", "result": 230, "unit": "nM"}, {"measurement": "NCI-60 screening: Log(GI50)", "setting": "[1]; IGROV1 (OV) cell line", "result": -5.82}, {"measurement": "NCI-60 screening: Log(RedIndex)", "setting": "[1]; IGROV1 (OV) cell line", "result": 0.18}, {"measurement": "GI50", "setting": "[1]; IGROV1, read-out: GI50", "result": 1500, "unit": "nM"}, {"measurement": "GI50", "setting": "[1]; K-562, read-out: GI50", "result": 400, "unit": "nM"}, {"measurement": "GI50", "setting": "[1]; KM12, read-out: GI50", "result": 1100, "unit": "nM"}, {"measurement": "GI50", "setting": "[1]; LOX IMVI, read-out: GI50", "result": 170, "unit": "nM"}, {"measurement": "GI50", "setting": "[1]; M14, read-out: GI50", "result": 250, "unit": "nM"}, {"measurement": "GI50", "setting": "[1]; MALME-3M, read-out: GI50", "result": 210, "unit": "nM"}, {"measurement": "GI50", "setting": "[1]; MCF7, read-out: GI50", "result": 28, "unit": "nM"}, {"measurement": "GI50", "setting": "[1]; MDA-MB-435, read-out: GI50", "result": 840, "unit": "nM"}, {"measurement": "GI50", "setting": "[1]; MDA-MB-468, read-out: GI50", "result": 160, "unit": "nM"}, {"measurement": "GI50", "setting": "[1]; MOLT-4, read-out: GI50", "result": 70, "unit": "nM"}, {"measurement": "GI50", "setting": "[1]; NCI-H23, read-out: GI50", "result": 45, "unit": "nM"}, {"measurement": "GI50", "setting": "[1]; NCI-H226, read-out: GI50", "result": 1000, "unit": "nM"}, {"measurement": "NCI-60 screening: Log(GI50)", "setting": "[1]; NCI-H460 (LC) cell line", "result": -7.39}, {"measurement": "NCI-60 screening: Log(RedIndex)", "setting": "[1]; NCI-H460 (LC) cell line", "result": 1.1}, {"measurement": "GI50", "setting": "[1]; NCI-H460, read-out: GI50", "result": 41, "unit": "nM"}, {"measurement": "NCI-60 screening: Log(GI50)", "setting": "[1]; NCI-H522 (LC) cell line", "result": -6.84}, {"measurement": "NCI-60 screening: Log(RedIndex)", "setting": "[1]; NCI-H522 (LC) cell line", "result": 1.07}, {"measurement": "GI50", "setting": "[1]; NCI-H522 (LC) cell line, read-out: NCI-60 screening: Raw GI50", "result": 150, "unit": "nM"}, {"measurement": "GI50", "setting": "[1]; NCI-H522, read-out: GI50", "result": 150, "unit": "nM"}, {"measurement": "NCI-60 screening: Log(GI50)", "setting": "[1]; OVCAR-3 (OV) cell line", "result": -6.31}, {"measurement": "NCI-60 screening: Log(RedIndex)", "setting": "[1]; OVCAR-3 (OV) cell line", "result": 0.63}, {"measurement": "GI50", "setting": "[1]; OVCAR-3, read-out: GI50", "result": 490, "unit": "nM"}, {"measurement": "NCI-60 screening: Log(GI50)", "setting": "[1]; OVCAR-4 (OV) cell line", "result": -5.79}, {"measurement": "NCI-60 screening: Log(RedIndex)", "setting": "[1]; OVCAR-4 (OV) cell line", "result": 0.16}, {"measurement": "GI50", "setting": "[1]; OVCAR-4, read-out: GI50", "result": 1600, "unit": "nM"}, {"measurement": "NCI-60 screening: Log(GI50)", "setting": "[1]; OVCAR-5 (OV) cell line", "result": -6.55}, {"measurement": "NCI-60 screening: Log(RedIndex)", "setting": "[1]; OVCAR-5 (OV) cell line", "result": 1.26}, {"measurement": "GI50", "setting": "[1]; OVCAR-5, read-out: GI50", "result": 280, "unit": "nM"}, {"measurement": "NCI-60 screening: Log(GI50)", "setting": "[1]; OVCAR-8 (OV) cell line", "result": -6.82}, {"measurement": "NCI-60 screening: Log(RedIndex)", "setting": "[1]; OVCAR-8 (OV) cell line", "result": 1.04}, {"measurement": "GI50", "setting": "[1]; OVCAR-8 (OV) cell line, read-out: NCI-60 screening: Raw GI50", "result": 150, "unit": "nM"}, {"measurement": "GI50", "setting": "[1]; OVCAR-8, read-out: GI50", "result": 150, "unit": "nM"}, {"measurement": "NCI-60 screening: Log(GI50)", "setting": "[1]; PC-3 (PR) cell line", "result": -6.45}, {"measurement": "NCI-60 screening: Log(RedIndex)", "setting": "[1]; PC-3 (PR) cell line", "result": 0.94}, {"measurement": "GI50", "setting": "[1]; PC-3, read-out: GI50", "result": 360, "unit": "nM"}, {"measurement": "GI50", "setting": "[1]; RPMI-8226, read-out: GI50", "result": 160, "unit": "nM"}, {"measurement": "NCI-60 screening: Log(GI50)", "setting": "[1]; RXF 393 (RE) cell line", "result": -6.88}, {"measurement": "NCI-60 screening: Log(RedIndex)", "setting": "[1]; RXF 393 (RE) cell line", "result": 0.9}, {"measurement": "GI50", "setting": "[1]; RXF 393 (RE) cell line, read-out: NCI-60 screening: Raw GI50", "result": 130, "unit": "nM"}, {"measurement": "GI50", "setting": "[1]; RXF 393, read-out: GI50", "result": 130, "unit": "nM"}, {"measurement": "GI50", "setting": "[1]; SF-268, read-out: GI50", "result": 170, "unit": "nM"}, {"measurement": "GI50", "setting": "[1]; SF-295, read-out: GI50", "result": 130, "unit": "nM"}, {"measurement": "GI50", "setting": "[1]; SF-539, read-out: GI50", "result": 170, "unit": "nM"}, {"measurement": "GI50", "setting": "[1]; SK-MEL-5, read-out: GI50", "result": 170, "unit": "nM"}, {"measurement": "GI50", "setting": "[1]; SK-MEL-28, read-out: GI50", "result": 260, "unit": "nM"}, {"measurement": "NCI-60 screening: Log(GI50)", "setting": "[1]; SK-OV-3 (OV) cell line", "result": -7.47}, {"measurement": "NCI-60 screening: Log(RedIndex)", "setting": "[1]; SK-OV-3 (OV) cell line", "result": 1.8}, {"measurement": "GI50", "setting": "[1]; SK-OV-3, read-out: GI50", "result": 34, "unit": "nM"}, {"measurement": "NCI-60 screening: Log(GI50)", "setting": "[1]; SN12C (RE) cell line", "result": -6.69}, {"measurement": "NCI-60 screening: Log(RedIndex)", "setting": "[1]; SN12C (RE) cell line", "result": 0.77}, {"measurement": "GI50", "setting": "[1]; SN12C (RE) cell line, read-out: NCI-60 screening: Raw GI50", "result": 200, "unit": "nM"}, {"measurement": "GI50", "setting": "[1]; SN12C, read-out: GI50", "result": 200, "unit": "nM"}, {"measurement": "GI50", "setting": "[1]; SNB-19, read-out: GI50", "result": 220, "unit": "nM"}, {"measurement": "GI50", "setting": "[1]; SR, read-out: GI50", "result": 37, "unit": "nM"}, {"measurement": "GI50", "setting": "[1]; SW-620, read-out: GI50", "result": 260, "unit": "nM"}, {"measurement": "GI50", "setting": "[1]; T-47D, read-out: GI50", "result": 290, "unit": "nM"}, {"measurement": "NCI-60 screening: Log(GI50)", "setting": "[1]; TK-10 (RE) cell line", "result": -5.89}, {"measurement": "NCI-60 screening: Log(RedIndex)", "setting": "[1]; TK-10 (RE) cell line", "result": 0.34}, {"measurement": "GI50", "setting": "[1]; TK-10, read-out: GI50", "result": 1300, "unit": "nM"}]}]}
